Assays:
ovariectomized rats = assay: Osteoporosis Test Procedure: femur density in ovariectomized rats, 35 days; assay type: in vivo, rat; conditions: oral, in 20% hydroxypropyl β-cyclodextrin, daily for 35 days
Procedure: Following the General Preparation Procedure, infra, the rats are treated daily for 35 days (6 rats per treatment group) and sacrificed by decapitation on the 36th day. The 35 day time period is sufficient to allow maximal reduction in bone density, measured as described herein. At the time of sacrifice, the uteri are removed, dissected free of extraneous tissue, and the fluid contents are expelled before determination of wet weight in order to confirm estrogen deficiency associated with complete ovariectomy. […] The uteri are then placed in 10% neutral buffered formalin to allow for subsequent histological analysis. The right femurs are excised and scanned at the distal metaphysis 1 mm from the patellar groove with single photon absorptiometry. Results of the densitometer measurements represent a calculation of bone density as a function of the bone mineral content and bone width. In accordance with the above procedures, compounds of the present invention and ethynyl estradiol (EE2) in 20% hydroxypropyl β-cyclodextrin are orally administered to test animals.

[1] = system: ovariectomized (OVX) female Sprague Dawley rats; assay: Serum cholesterol in ovariectomized rats (post-menopausal model), 4 days of daily dosing; assay type: in vivo, rat; conditions: for Cholest. % dec. OVX: oral, daily for 4 days
Procedure: (§1) In the examples illustrating the methods, a post-menopausal model was used in which effects of different treatments upon circulating lipids were determined.
(§2) Seventy-five day old female Sprague Dawley rats (weight range of 200 to 225 g) were obtained from Charles River Laboratories (Portage, Mich.). The animals were either bilaterally ovariectomized (OVX) or exposed to a Sham surgical procedure at Charles River Laboratories, and then shipped after one week. Upon arrival, they were housed in metal hanging cages in groups of 3 or 4 per cage and had ad libitum access to food (calcium content approximately 0.5%) and water for one week. Room temperature was maintained at 22.2°±1.70° C. with a minimum relative humidity of 40%. The photoperiod in the room was 12 hours light and 12 hours dark.
(§3) Dosina Reaimen Tissue Collection. After a one week acclimation period (therefore, two weeks post-OVX) daily dosing with test compound was initiated. 17α-ethynyl estradiol or the test compound were given orally, unless otherwise stated, as a suspension in 1% carboxymethylcellulose or dissolved in 20% cyclodextrin. Animals were dosed daily for 4 days. Following the dosing regimen, animals were weighed and anesthetized with a ketamine: xylazine (2:1, V:V) mixture and a blood sample was collected by cardiac puncture. The animals were then sacrificed by asphyxiation with CO2, the uterus was removed through a midline incision, and a wet uterine weight was determined.
Cholesterol Analysis. Blood samples were allowed to clot at room temperature for 2 hours, and serum was obtained following centrifugation for 10 minutes at 3000 rpm. Serum cholesterol was determined using a Boehringer Mannheim Diagnostics high performance cholesterol assay. Briefly the cholesterol was oxidized to cholest-4-en-3-one and hydrogen peroxide. The hydrogen peroxide was then reacted with phenol and 4-aminophenazone in the presence of peroxidase to produce a p-quinone imine dye, which was read spectrophotemetrically at 500 nm. Cholesterol concentration was then calculated against a standard curve. The entire assay was automated using a Biomek Automated Workstation.

[2] = system: uteri of ovariectomized (OVX) female Sprague Dawley rats; assay: Uterine Eosinophil Peroxidase (EPO) Assay; conditions: rat, in vivo
[3] = system: ovariectomized (OVX) female Sprague Dawley rats; assay: Wet uterine weight in ovariectomized rats, 4 days of daily dosing; conditions: rat, in vivo, po, 0.1 mg/kg/day
Procedure: as §1, §2
as §3, with “Following the dosing regimen, animals were weighed and anesthetized with a ketamine: xylazine (2:1, V:V) mixture and a blood sample was collected by cardiac puncture.” left out

Row | uterine weight compared with ovariectomized test animals (in words) [3] | SMILES | loss of femur density (bone loss) after ovariectomy, in words (ovariectomized rats) | effect on serum cholesterol (in words) ([1]; orally administered at 0.1 mg/Kg/day) | eosinophil infiltration into the uterus (stromal layer), in words [2] | Cholest. % dec. OVX ([1]; 0.1 mg/kg) [%] | Cholest. % dec. OVX ([1]; 1 mg/kg) [%] | Cholest. % dec. OVX ([1]; 10 mg/kg) [%]
1 | substantially greater | C#C[C@]1(O)CC[C@H]2[C@@H]3CCc4cc(O)ccc4[C@H]3CC[C@@]21C [EE2, 17α-ethynyl estradiol] | prevents this loss | caused a decrease in serum cholesterol | substantial, expected increase in esosinophils infiltration | – | – | –
2 | – | CC1(C)CCN(CCOc2ccc(C(=O)c3c(-c4ccc(O)cc4)sc4cc(O)ccc34)cc2)CC1 | – | – | – | 14.5 | 25.9 | 65.8
3 | – | COC[C@@H]1CCCN1CCOc1ccc(C(=O)c2c(-c3ccc(O)cc3)sc3cc(O)ccc23)cc1 | – | – | – | 30.2 | 65.4 | 80.3
4 | – | CC1(C)CCCN(CCOc2ccc(C(=O)c3c(-c4ccc(O)cc4)sc4cc(O)ccc34)cc2)C1 | – | – | – | 25.1 | 58.6 | 50.9
5 | – | O=C(c1ccc(OCCN2CCC[C@@H]2CO)cc1)c1c(-c2ccc(O)cc2)sc2cc(O)ccc12 | – | – | – | 42.0 | 40.6 | 71.9
6 | – | CC1CC(C)CN(CCOc2ccc(C(=O)c3c(-c4ccc(O)cc4)sc4cc(O)ccc34)cc2)C1 (racemic) | – | – | – | 50.6 | 69.7 | 81.6
7 | – | O=C(c1ccc(OCCN2CCC[C@H]2CO)cc1)c1c(-c2ccc(O)cc2)sc2cc(O)ccc12 | – | – | – | 46.7 | 73.7 | 74.5
8 | – | C[C@@H]1C[C@H](C)CN(CCOc2ccc(C(=O)c3c(-c4ccc(O)cc4)sc4cc(O)ccc34)cc2)C1 | – | – | – | 13.8 | 66.8 | 85.5
9 | – | CC1CCCC(C)N1CCOc1ccc(C(=O)c2c(-c3ccc(O)cc3)sc3cc(O)ccc23)cc1 (stereo not shown) | – | – | – | 41.5 | 62.3 | 76.9
10 | – | CC1CCN(CCOc2ccc(C(=O)c3c(-c4ccc(O)cc4)sc4cc(O)ccc34)cc2)CC1 | – | – | – | 43.2 | 71.0 | 51.6

Source: US6608090B1, “Benzothiophenes with novel basic side chains” (Eli Lilly and Company, priority 1995, dated 2003)
